In patent publication US20160160232A1, “ALS INHIBITOR HERBICIDE TOLERANT MUTANT PLANTS” (priority 2013, published 2016):

Assays:
[1] = system: wild-type (WT) oilseed rape; experiment: Further field trial, phytotoxicity (Table 3); type: in vivo, Brassica napus; conditions: g ai/ha: IMAZAMOX 40, BISPYRIBAC-SODIUM 50, PROPOXYCARBAZONE-SODIUM 70, MESOSULFURON-METHYL 60, PYROXSULAM 12.5 with CLOQUINTOCET-MEXYL 37.5, each with RAPESEED OIL METHYLATED 366.5
Procedure: (§1) In a further field trial, seeds of spring oilseed rape comprising HETO133 and HETO134, and wild type (WT) seeds were sown in a field. For the untreated plants, biomass was determined at 9, 16 and 24 days after application (DAA) as compared to a control variety. For the treated plants, phytotoxicity was assessed at 9, 16 and 24 days after application (DAA) according to a scale from 0 to 100%. For both wild-type and HETO133-HETO134, no thinning was observed.

[2] = system: oilseed rape homozygous for HETO133 and HETO134; experiment: Further field trial, phytotoxicity (Table 3); type: in vivo, Brassica napus; conditions: g ai/ha: IMAZAMOX 40, BISPYRIBAC-SODIUM 50, PROPOXYCARBAZONE-SODIUM 70, MESOSULFURON-METHYL 60, PYROXSULAM 12.5 with CLOQUINTOCET-MEXYL 37.5, each with RAPESEED OIL METHYLATED 366.5
Procedure: as §1

[3] = system: wild-type segregant (WTS) oilseed rape; experiment: Field trial, visible phytotoxicity (Table 2); type: in vivo, Brassica napus; conditions: applied at BBCH 14, 200 L/ha water, g ai/ha: Foramsulfuron 25, TCM 15, Iodosulfuron 7, Mesosulfuron 60, Amidosulfuron 30, Ethoxysulfuron 60, Imazamox 40, Metosulam 30, Bispyribac 50, Nicosulfuron 60, Metsulfuron 8, Propoxycarbazone 70, Pyroxsulam 50, Tribenuron 30, Rimsulfuron 12.5, Flucarbazone 40, Thifensulfuron 7.5
Source text: (§2) Seeds of spring oilseed rape homozygous for HETO133 and HETO134 were sown in a field according to typical practical agricultural methods. The registered spring oilseed rape variety ABILITY, the wild-type segregant (WTS), and plants comprising a P197S mutation on ALS I and a W574L mutation on ALS III (P197S-W574L) served as a comparison. All plants were cultivated up to BBCH stage 14 (four true leaves of the oilseed rape plants). Afterwards, the herbicides mentioned in table 2 have been applied to the oilseed rape plants by using specific spray equipment for small plot applications. The water amount used was 200 L/ha.

[4] = system: oilseed rape comprising a P197S mutation on ALS I and a W574L mutation on ALS III (P197S-W574L); experiment: Field trial, visible phytotoxicity (Table 2); type: in vivo, Brassica napus; conditions: applied at BBCH 14, 200 L/ha water, g ai/ha: Foramsulfuron 25, TCM 15, Iodosulfuron 7, Mesosulfuron 60, Amidosulfuron 30, Ethoxysulfuron 60, Imazamox 40, Metosulam 30, Bispyribac 50, Nicosulfuron 60, Metsulfuron 8, Propoxycarbazone 70, Pyroxsulam 50, Tribenuron 30, Rimsulfuron 12.5, Flucarbazone 40, Thifensulfuron 7.5
Source text: as §2

[5] = system: oilseed rape homozygous for HETO133 and HETO134; experiment: Field trial, visible phytotoxicity (Table 2); type: in vivo, Brassica napus; conditions: applied at BBCH 14, 200 L/ha water, g ai/ha: Foramsulfuron 25, TCM 15, Iodosulfuron 7, Mesosulfuron 60, Amidosulfuron 30, Ethoxysulfuron 60, Imazamox 40, Metosulam 30, Bispyribac 50, Nicosulfuron 60, Metsulfuron 8, Propoxycarbazone 70, Pyroxsulam 50, Tribenuron 30, Rimsulfuron 12.5, Flucarbazone 40, Thifensulfuron 7.5
Source text: as §2

[6] = system: spring oilseed rape variety ABILITY; experiment: Field trial, visible phytotoxicity (Table 2); type: in vivo, Brassica napus; conditions: applied at BBCH 14, 200 L/ha water, g ai/ha: Foramsulfuron 25, TCM 15, Iodosulfuron 7, Mesosulfuron 60, Amidosulfuron 30, Ethoxysulfuron 60, Imazamox 40, Metosulam 30, Bispyribac 50, Nicosulfuron 60, Metsulfuron 8, Propoxycarbazone 70, Pyroxsulam 50, Tribenuron 30, Rimsulfuron 12.5, Flucarbazone 40, Thifensulfuron 7.5
Source text: as §2

[7] = system: Hypocotyl derived callus (WT tissues); experiment: Callus selection on Foramsulfuron containing medium; type: cell-based, Brassica napus
Procedure: Five day old seedlings were used for the preparation of hypocotyl segments 7-10 mm in length. Hypocotyl segments were transferred to 14 cm Petri plates containing 75 ml of M-338 [H76] callus induction medium (25 explants/plate). M-338 [H76] medium is MS salts and vitamins (Murashige and Skoog, 1962), 20 g/l sucrose, 0.5 g/l MES, 0.5 g/l adenine sulphate, 5 mg/l silver nitrate, 0.5 mg/l 2,4-D, 0.2 mg/l kinetin and solidified with 5.5 g/l agarose (pH 5.7). Dishes were sealed and cultured at 24° C. with standard light conditions (16 h/day). After 3 weeks, calli developing at the ends of the explants were transferred to fresh M-338 [H76] plates (25 calli/plate). Calli were subcultured to fresh medium every 3 weeks (larger calli cut into two pieces).
Hypocotyl derived callus (9 weeks old) was used for the selection of herbicide resistant mutants. Small pieces of callus were plated on M-338 [H76] medium containing 25 nM of the ALS inhibitor Foramsulfuron (CAS RN 173159-57-4). […] Dishes were cultured at 24° C. with standard light conditions (16 h/day). After 3 weeks, the calli were divided into 2 pieces each and replated on M-338 [H76] medium containing 50 nM Foramsulfuron. […]

SMILES | Percentage phytotoxicity WT 9 DAA [1] | Percentage phytotoxicity WT 16 DAA [1] | Percentage phytotoxicity WT 24 DAA [1] | Percentage phytotoxicity HETO133-HETO134 9 DAA [2] | Percentage phytotoxicity HETO133-HETO134 16 DAA [2] | Percentage phytotoxicity HETO133-HETO134 24 DAA [2] | Percentage phytotoxicity WTS 7 DAA [3] | Percentage phytotoxicity WTS 14 DAA [3] | Percentage phytotoxicity WTS 23 DAA [3] | Percentage phytotoxicity P197S-W574L 7 DAA [4] | Percentage phytotoxicity P197S-W574L 14 DAA [4] | Percentage phytotoxicity P197S-W574L 23 DAA [4] | Percentage phytotoxicity HETO133-HETO134 7 DAA [5] | Percentage phytotoxicity HETO133-HETO134 14 DAA [5] | Percentage phytotoxicity HETO133-HETO134 23 DAA [5] | Percentage phytotoxicity ABILITY 7 DAA [6] | Percentage phytotoxicity standard 14 DAA [6] | Percentage phytotoxicity standard 23 DAA [6] | effect on callus growth ([7]; 25 nM Foramsulfuron in M-338 [H76] medium, starting concentration) | effect on WT tissues ([7]; 250 nM Foramsulfuron in M-338 [H76] medium)
COc1cc(OC)nc(Oc2cccc(Oc3nc(OC)cc(OC)n3)c2C(=O)O)n1 [Bispyribac, bispyribac-sodium] | 76.7% | 98.3% | 100% | 56.7% | 88.3% | 92.7% | – | – | – | – | – | – | – | – | – | – | – | – | – | –
COc1nn(C(=O)[N-]S(=O)(=O)c2ccccc2OC(F)(F)F)c(=O)n1C.[Na+] [Flucarbazone, flucarbazone-sodium] | – | – | – | – | – | – | 85% | 98% | 99% | 10% | 6% | 10% | 0% | 0% | 0% | 85% | 98% | 99% | – | –
COc1cc(OC)nc(NC(=O)NS(=O)(=O)c2cc(NC=O)ccc2C(=O)N(C)C)n1 [Foramsulfuron, foramsulfuron] | – | – | – | – | – | – | – | – | – | – | – | – | – | – | – | – | – | – | partially inhibitory to callus growth but not lethal | clearly inhibitory to WT tissues
COCc1cnc(C2=NC(C)(C(C)C)C(=O)N2)c(C(=O)O)c1 (centres unmarked) [Imazamox, imazamox] | 73.3% | 98% | 99% | 6.7% | 10% | 0% | – | – | – | – | – | – | – | – | – | – | – | – | – | –
COC(=O)c1ccc(CNS(C)(=O)=O)cc1S(=O)(=O)NC(=O)Nc1nc(OC)cc(OC)n1 [Mesosulfuron, mesosulfuron-methyl] | 76.7% | 98% | 96% | 11.7% | 13.3% | 3.3% | 85% | 98% | 99% | 40% | 40% | 45% | 33% | 38% | 35% | 85% | 98% | 99% | – | –
COC(=O)c1ccccc1S(=O)(=O)NC(=O)Nc1nc(C)nc(OC)n1 [Metsulfuron, metsulfuron-methyl] | – | – | – | – | – | – | 86% | 98% | 99% | 45% | 50% | 62% | 50% | 63% | 78% | 86% | 98% | 99% | – | –
CCCOc1nn(C(=O)[N-]S(=O)(=O)c2ccccc2C(=O)OC)c(=O)n1C.[Na+] [Propoxycarbazone, propoxycarbazone-sodium] | 76.7% | 97% | 97.7% | 53.3% | 82.7% | 76.7% | 86% | 98% | 99% | 47% | 52% | 47% | 57% | 72% | 83% | 86% | 98% | 99% | – | –
COc1cc(OC)n2nc(NS(=O)(=O)c3c(C(F)(F)F)ccnc3OC)nc2n1 [Pyroxsulam, pyroxsulam] | 76.7% | 98% | 98% | 13.3% | 17% | 15% | 83% | 98% | 99% | 15% | 16% | 18% | 0% | 0% | 5% | 83% | 98% | 99% | – | –
COC(=O)c1csc(C)c1S(=O)(=O)NC(=O)n1nc(OC)n(C)c1=O [TCM, thiencarbazone-methyl] | – | – | – | – | – | – | 85% | 98% | 99% | 16% | 13% | 17% | 0% | 0% | 3% | 85% | 98% | 99% | – | –
